In patent US8765779B2, “Tricyclic derivatives and their pharmaceutical use and compositions” (Cephalon, Inc., priority 2009, dated 2014) one finds Ki data, which are given here for 65 molecules.

Where a name gives a salt, the structure may show the parent alone. Read-outs that look alike come from different tables or passages of the source. A value given as a limit tells only on which side of the number the result lay.

The target of the assay is T1, human 5-HT6 receptor (Homo sapiens, UniProt P50406).
T1 construct: host or cells: CHO-K1 cells, stably transfected; membranes prepared in house
T1 sequence (P50406 whole entry): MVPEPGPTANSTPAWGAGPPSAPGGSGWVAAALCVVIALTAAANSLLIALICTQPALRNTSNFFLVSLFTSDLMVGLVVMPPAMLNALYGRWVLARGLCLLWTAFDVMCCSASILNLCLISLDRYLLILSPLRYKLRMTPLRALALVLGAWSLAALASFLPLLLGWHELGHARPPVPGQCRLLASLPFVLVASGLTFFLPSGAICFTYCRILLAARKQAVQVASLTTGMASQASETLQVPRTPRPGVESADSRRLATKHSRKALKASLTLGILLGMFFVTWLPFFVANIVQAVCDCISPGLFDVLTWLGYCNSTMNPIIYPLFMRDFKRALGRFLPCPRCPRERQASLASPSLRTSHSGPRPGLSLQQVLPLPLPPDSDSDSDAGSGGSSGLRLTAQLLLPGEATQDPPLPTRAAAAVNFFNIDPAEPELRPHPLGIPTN
Put plainly: Human 5-HT6 Receptor Binding Assay ([3H]LSD displacement, scintillation beads). Particulars: membranes of CHO-K1 cells with recombinant human 5-HT6, 4 nM [3H]LSD, read-out: h5-HT6 (Ki).

Broadly, the Ki is the equilibrium dissociation constant of an inhibitor or competing ligand from its target. As to `O=S(=O)(Nc1ccc(Cl)cc1Cl)c1ccc2c(c1)C1CCNCC1O2` (stereo not drawn) [Example 844], the Ki (Table 1, class symbols) was above 1000 nM.
Same read-out and setting: next, `O=S(=O)(c1ccc(F)c(Cl)c1)c1ccc2oc3c(c2c1)CCNC3` [Example 258]: below 500 nM.
On to `CCCOc1cccc(S(=O)(=O)c2ccc3c(c2)OC2CNCCC32)c1` (stereo not drawn) [Example 572], for which the Ki (Table 1, class symbols) is below 500 nM.
On to `CCCCOc1cc(OC)cc(S(=O)(=O)c2ccc3c(c2)OC2CNCCC32)c1` (stereo not drawn) [Example 587], for which the Ki (Table 1, class symbols) was below 500 nM.
For the molecule `O=S(=O)(c1ccc2c(c1)OC1CNCCC21)c1cccc2c1OCCO2` (stereo not drawn) [Example 462], the Ki (Table 1, class symbols) is above 1000 nM.
On the same count and under the same terms, next, `O=S(=O)(c1ccc(F)c(Cl)c1)c1ccc2c(c1)OC1CNCCC21` (stereo not drawn) [Example 127]: below 500 nM; `O=S(=O)(c1ccc2oc3c(c2c1)CCNC3)c1cccc2ccccc12` [Example 249]: below 500 nM; `O=S(=O)(c1cc(F)cc(Cl)c1)c1ccc2oc3c(c2c1)CCNC3` [Example 255]: below 500 nM.
The same measure, in the same setting: next, `O=C(COc1cccc(S(=O)(=O)c2ccc3c(c2)OC2CNCCC32)c1)N1CCCC1` (stereo not drawn) [Example 564]: above 1000 nM.
On the same count and under the same terms, next, `O=S(=O)(c1cccc(Br)c1)c1ccc2c(c1)OC1CNCCC21` (stereo not drawn) [Example 133]: below 500 nM; `COC(=O)c1cccc(S(=O)(=O)c2ccc3c(c2)OC2CNCCC32)c1` (stereo not drawn) [Example 138]: above 1000 nM.
Turning to `Cc1c(Cl)cccc1S(=O)(=O)Oc1ccc2c(c1)C1CCNCC1O2` (stereo not drawn) [Example 717], the Ki (Table 1, class symbols) is below 500 nM.
The same measure, in the same setting: the same measure for `O=S(=O)(c1cc(F)cc(F)c1)c1ccc2c(c1)OC1CNCCC21` (stereo not drawn) [Example 164]: below 500 nM; for `[O-][S+](c1ccc2c3c(oc2c1)CNCC3)c1cccnc1Cl` (stereo not drawn) [Example 435]: above 1000 nM; for `O=S(=O)(Oc1ccc2c(c1)C1CCNCC1O2)c1ccc(C(F)(F)F)cc1` (stereo not drawn) [Example 735]: above 1000 nM.
As for `O=S(=O)(c1ccncc1)c1ccc2oc3c(c2c1)CCNC3` [Example 352], the Ki (Table 1, class symbols) is above 1000 nM.
Still for that read-out and setting: the same measure for `CC12CCNCC1Oc1ccc(OS(=O)(=O)c3ccccc3Cl)cc12` (stereo not drawn) [Example 763]: above 1000 nM.
The same measure, in the same setting: next, `COc1ccc(S(=O)(=O)c2cccc3c2OC2CNCCC32)cc1` (stereo not drawn) [Example 187]: 500 to 1000 nM; `O=S(=O)(c1ccc2c(c1)OC1CNCCC21)c1cccc2c1CCO2` (stereo not drawn) [Example 418]: below 500 nM.
Consider `CN(C)C(=O)c1cccc(S(=O)(=O)c2ccc3c4c(oc3c2)CNCC4)c1` [Example 474, N,N-Dimethyl-3-(1,2,3,4-tetrahydro[1]benzofuro[2,3-c]pyridin-7-ylsulfonyl)benzamide hydrochloride], for which, for the setting “Table 1, class symbols”, the Ki was above 1000 nM.
The same measure, in the same setting: next, `O=S(=O)(c1cccc(OC(F)(F)F)c1)c1ccc2oc3c(c2c1)CCNC3` [Example 270, 6-{[3-(trifluoromethoxy)phenyl]sulfo-nyl}-1,2,3,4-tetrahydro[1]benzofuro[2,3-c]pyridine]: below 500 nM; `O=S(=O)(Oc1ccc2c(c1)OC1CNCCC21)c1ccc(Oc2ccccc2)nc1` (stereo not drawn) [Example 685]: above 1000 nM; `Cc1noc(C)c1S(=O)(=O)Oc1ccc2c(c1)OC1CNCCC21` (stereo not drawn) [Example 646]: 500 to 1000 nM.
Still for that read-out and setting: next, `CC1(C)NCCc2c1oc1cc(S(=O)(=O)c3cccc(F)c3F)ccc21` [Example 365]: below 500 nM; `O=S(=O)(Oc1ccc2c(c1)OC1CNCCC21)c1csc2ccccc12` (stereo not drawn) [Example 665]: below 500 nM.
Same read-out and setting: the same measure for `O=S(=O)(c1cccc(C(F)(F)F)c1)c1ccc2c(c1)OC1CNCCC21` (stereo not drawn) [Example 167]: below 500 nM; for `COc1cc(OCC2CC2)cc(S(=O)(=O)c2ccc3c(c2)OC2CNCCC32)c1` (stereo not drawn) [Example 585]: below 500 nM; for `COC(=O)c1cccc(S(=O)(=O)c2ccc3c4c(oc3c2)CNCC4)c1` [Example 219]: below 500 nM.
Take `CC12CCNCC1Oc1ccc(OS(=O)(=O)c3ccccc3)cc12` (stereo not drawn) [Example 759]: the Ki (Table 1, class symbols) is above 1000 nM.
The same measure, in the same setting: the same measure for `CC1(C)NCCc2c1oc1cc(S(=O)(=O)c3cc(F)cc(F)c3)ccc21` [Example 293]: below 500 nM.
Same read-out and setting: the same measure for `CC12CCNCC1Oc1cc(S(=O)(=O)c3ccccn3)ccc12` (racemic) [Example 8, 4a-methyl-7-(pyridin-2-ylsulfonyl)-1,2,3,4,4a,9a-hexahydro[1]benzofuro[2,3-c]pyridine]: above 1000 nM.
Same read-out and setting: next, `CC(C)c1ccc(S(=O)(=O)c2ccc3c(c2)OC2CNCCC32)cc1` (stereo not drawn) [Example 125]: below 500 nM.
Regarding `Cc1ccc(C)c(S(=O)(=O)Oc2ccc3c(c2)C2CCNCC2O3)c1` (stereo not drawn) [Example 704], the Ki (Table 1, class symbols) is below 500 nM.
In the case of `CC(C)C(=O)NCC1(C)NCCc2c1oc1cc(S(=O)(=O)c3cccc(F)c3)ccc21` (stereo not drawn) [Example 491, N-[7-(3-Fluoro-benzenesulfonyl)-1-methyl-1,2,3,4-tetrahydro-benzofuro[2,3-c]pyridin-1-ylmethyl]-isobutyramide], the Ki (Table 1, class symbols) is below 500 nM.
`O=S(=O)(c1cc(F)cc(F)c1)c1ccc2c3c(oc2c1)C1(CCOC1)NCC3` (stereo not drawn) [Example 302]: where the note is “Table 1, class symbols”, the Ki was below 500 nM.
On the same count and under the same terms, next, `O=S(=O)(c1ccc2c3c(oc2c1)[C@]1(CCOC1)NCC3)c1cc(F)ccc1F` (single isomer, unassigned) [Example 111]: below 500 nM; `O=S(=O)(c1cccc(F)c1)c1ccc2c3c(oc2c1)C1(CCOC1)NCC3` (single isomer, unassigned) [Example 53, 7-[(3-fluorophenyl)sulfonyl]-3,4,4′,5′-tetrahydro-2H-spiro[1-benzofuro[2,3-c]pyridine-1,3′-furan]]: below 500 nM.
On the same count and under the same terms, next, `CCCCCOc1cccc(S(=O)(=O)c2ccc3c(c2)OC2CNCCC32)c1` (stereo not drawn) [Example 557]: below 500 nM; `O=S(=O)(c1ccc(Cl)cc1)c1ccc2c(c1)OC1CNCCC21` (stereo not drawn) [Example 322]: below 500 nM.
Still for that read-out and setting: the same measure for `O=S(=O)(c1cccc(OC(F)(F)F)c1)c1ccc2c3c([nH]c2c1)C1(CCCOC1)NCC3` (single isomer, unassigned) [Example 319]: below 500 nM.
With `O=S(=O)(c1cccc(F)c1)c1ccc2c(c1)OC1CNCCC21` (stereo not drawn) [Example 117], the Ki (Table 1, class symbols) was below 500 nM.
Still for that read-out and setting: the same measure for `O=S(=O)(Oc1ccc2c(c1)OC1CNCCC21)c1cccc2cnccc12` (stereo not drawn) [Example 684]: 500 to 1000 nM; for `O=S(=O)(c1cccc(F)c1)c1ccc2oc3c(c2c1)CCN1CCC31` (stereo not drawn) [Example 619]: below 500 nM.
Same read-out and setting: next, `COc1cc(OC2CCC2)cc(S(=O)(=O)c2ccc3c(c2)OC2CNCCC32)c1` (stereo not drawn) [Example 583]: below 500 nM; `O=S(=O)(Cc1ccc(C(F)(F)F)cc1)Oc1ccc2c(c1)C1CCNCC1O2` (stereo not drawn) [Example 751]: above 1000 nM.
Consider `CC(=O)N1CCC2c3ccc(S(=O)(=O)c4ccccc4)cc3OC2C1` (stereo not drawn) [Example 613, 1-[7-(Phenylsulfonyl)-3,4,4a,9a-tetrahydro[1]benzofuro[2,3-c]pyridin-2(1H)-yl]ethanone], for which the Ki (Table 1, class symbols) was above 1000 nM.
The same measure, in the same setting: next, `O=S(=O)(c1ccccc1)c1ccc2c3c(oc2c1)C(C(F)F)NCC3` (stereo not drawn) [Example 523]: below 500 nM; `O=S(=O)(c1ccc2c(c1)OC1CNCCC21)c1cccc(Cl)c1F` (stereo not drawn) [Example 422]: below 500 nM.
On the same count and under the same terms, next, `O=S(=O)(c1ccc(Oc2ccccc2)cc1)c1ccc2c3c(oc2c1)CNCC3` [Example 201]: below 500 nM; `O=S(=O)(Cc1ccc(F)cc1F)Oc1ccc2c(c1)C1CCNCC1O2` (stereo not drawn) [Example 756]: above 1000 nM.
On the same count and under the same terms, next, `O=S(=O)(c1ccc2c(c1)OC1CNCCC21)c1ccccc1OCC(F)(F)F` (stereo not drawn) [Example 421]: below 500 nM.
Regarding `Cc1ccc(S(=O)(=O)Oc2ccc3c(c2)C2CCNCC2O3)cc1Cl` (stereo not drawn) [Example 719], the Ki (Table 1, class symbols) is below 500 nM.
Same read-out and setting: next, `O=S(=O)(c1ccc2c(c1)OC1CNCCC21)c1cc(F)cc(F)c1F` (stereo not drawn) [Example 412]: below 500 nM; `O=S(=O)(c1cccc(Br)c1)c1ccc2oc3c(c2c1)CCNC3` [Example 263, 6-[(3-bromophenyl)sulfonyl]-1,2,3,4-tetrahydro[1]benzofuro[2,3-c]pyridine]: below 500 nM; `O=S(=O)(Oc1ccc2c(c1)C1CCNCC1O2)c1csc2ccccc12` (stereo not drawn) [Example 726]: below 500 nM.
`Cc1ccc(C)c(S(=O)(=O)Nc2ccc3c(c2)C2CCNCC2O3)c1` (stereo not drawn) [Example 820, N-(1,2,3,4,4a,9a-hexahydro[1]benzofuro[2,3-c]pyridin-6-yl)-2,5-dimethylbenzenesulfonamide]: the Ki (Table 1, class symbols) is below 500 nM and the Ki (specific data) stood at 472 nM.
`CC(C)Oc1cccc(S(=O)(=O)c2ccc3c4c(oc3c2)C2(CCOC2)NCC4)c1` (single isomer, unassigned) [Example 31, 7-{[3-(propan-2-yloxy)phenyl]sulfonyl}-3,4,4′,5′-tetrahydro-2H-spiro[1-benzofuro[2,3-c]pyridine-1,3′-furan]]: the inhibitory constant (Ki) (Table 1, class symbols) is below 500 nM.
The same measure, in the same setting: the same measure for `CCOc1cc(F)cc(S(=O)(=O)c2ccc3c(c2)OC2CNCCC32)c1` (stereo not drawn) [Example 401]: below 500 nM.
As to `COc1cc(OCC2CCOCC2)cc(S(=O)(=O)c2ccc3c(c2)OC2CNCCC32)c1` (stereo not drawn) [Example 584], the Ki (Table 1, class symbols) is below 500 nM.
Still for that read-out and setting: the same measure for `O=S(=O)(c1ccccc1)c1ccc2c3c(oc2c1)[C@@]1(CCOC1)NCC3` (single isomer, unassigned) [Example 108]: below 500 nM; for `COc1cc(OC2CCCC2)cc(S(=O)(=O)c2ccc3c(c2)OC2CNCCC32)c1` (stereo not drawn) [Example 586]: below 500 nM.
Same read-out and setting: next, `CC(C)Oc1cccc(S(=O)(=O)c2ccc3c(c2)OC2CNCCC32)c1` (stereo not drawn) [Example 136]: below 500 nM; `O=S(=O)(c1ccc2c(c1)C1CCNCC1O2)N1CCC(c2ccccc2)CC1` (stereo not drawn) [Example 861]: 500 to 1000 nM; `COC(=O)c1cc(Cl)cc(S(=O)(=O)c2ccc3c(c2)OC2CNCCC32)c1` (stereo not drawn) [Example 387]: above 1000 nM.
On the same count and under the same terms, the same measure for `CC1(C)NCCc2c1oc1cc(S(=O)(=O)c3cc(Cl)c[n+]([O-])c3N)ccc21` [Example 371]: below 500 nM.
